In patent US8933295B2, “Identifying agents to treat alzheimer's disease-related decreased sorting behavior by administration to a triple transgenic mouse expressing mutant forms of APP, presenilin or tau” (Janssen Biotech, Inc., priority 2008, dated 2015):
“Also recorded” adds a separate entry of the source.

Tested on: 3×Tg-AD mice
Experiment: Sorting Activity Test (SAT), bedding sorting score, tricyclic antidepressants
Type: in vivo, mouse
Conditions: for mean sorting score over the course of the study: 6 cages x 7 weeks; for mean sorting score over the course of the study / mean sorting score: score 0-4; for mean sorting score: day 7 after bedding change, 6 cages, dosed once daily Mon-Fri
Description: The 3×Tg-AD mice developed by LaFerla et al., at the University of California at Irvine (Neuron 2003b) were used in the study. These mice harbor mutations in three different genes: the β-amyloid precursor protein (APPSweKM→NL), presenilin-1 (PS1M146V) and tau (P301L). […] Intracellular A-beta peptide immunoreactivity has been reported to appear by as early as three months of age and extracellular A-beta deposits in evidence between six and 12 months of age (Oddo et al., 2003a, 2003b). In the cohort of mice used in the present studies, these hallmarks of AD were not observed until 19 months of age by immunohistochemical methods.
Triple transgenic (3×Tg-AD) mice and corresponding non-transgenic control mice were weaned and group housed four (4) mice per cage in large static microisolator caging composed of a tinted polycarbonate cage, stainless steel lid, and polycarbonate filtered top at Ace Animals, Inc. Mice were fed 5% Fat Purina Autoclavable Breeder Diet (Item #RHI5R24CGP) and provided reverse osmosis chlorinated water ad libitum within a barrier environment in an environmentally controlled facility (22° C., 40-60% relative humidity) with a 12:12-hour light: dark cycle. Health status reports certify that all animals were free of known viral, bacterial, and parasitic pathogens.
The unique factor within this colony was the use of a combination corncob and papered bedding (AlphaCobb® cat #ALPHA4B, Animal Specialties and Provisions, Quakertown, Pa.). The mice were 8 weeks of age at the start of the study.
Mice were housed 2 per cage, 6 cages per group: Non-transgenic control, untreated, 3×Tg-AD, untreated, 3×Tg-AD, Desipramine, 30 mg/kg, and 3×Tg-AD, Imipramine. All mice were approximately two months of age at the start of the study. Mice were dosed once daily, Monday through Friday with test article. Cages were photographed weekly on Day 7, and cage bedding was changed once per week after photographs were taken.
In order to quantify the sorting behavior of the mice in this study, a scoring system was devised. Before the start of the initial study the mice were observed. It was evident that the sorting behavior was not an “all or nothing” phenomenon, but rather existed in degrees. After observing the cages for some time, scoring criteria were established.
In these cages, the two types of bedding were equally mixed throughout the cage. There was no area where one bedding type was more concentrated.
In these cages, a small area of white bedding was seen, usually piled in a corner. The two types of bedding were equally mixed throughout the rest of the cage.
A score of 2 was given to cages when the white area of bedding was more pronounced, yet the bedding throughout the rest of the cage was still mixed.
A score of 3 was given to cages when the white area was very clearly defined, and very little white bedding was left mixed with the Alpha Cobb.
A score of 4 was given to cages when the two types of bedding were almost completely separated from each other.
The degree of sorting at the end of each 7 day period (before the cages were changed) was scored using this system.
Using the scoring system devised and making daily observations of the cages, the behavior patterns of the non-transgenic control mice could be clearly distinguished from the 3×Tg-AD mice within a matter of a couple days, but was most prominent after Day 3. At Day 7 before each bedding change, the bedding of each cage was digitally photographed and scored. Table 1 provides the mean score and standard deviation (SD) for each group of mice for each week observed.
Data was analyzed using GraphPad Prism software with ANOVA one-way analysis of variance followed by Dunnett's multiple comparison test. All groups (6 cages×7 weeks) were compared to untreated 3×TgAD group. Significance was defined as p<0.05.

Compound | mean sorting score over the course of the study | sorting behavior, in words (treated 3×Tg-AD mice compared to untreated Tg mice) | mean sorting score (week 1) | mean sorting score (week 2) | mean sorting score (week 3) | mean sorting score (week 4) | mean sorting score (week 5) | mean sorting score (week 6) | mean sorting score (week 7)
CNCCCN1c2ccccc2CCc2ccccc21 [DESIPRAMINE, Desipramine] | 0.67 | regained some of the behavior; also recorded: greater effect than imipramine | 0.00 | 0.50 | 1.17 | 0.83 | 0.83 | 0.50 | 0.83
CN(C)CCCN1c2ccccc2CCc2ccccc21 [IMIPRAMINE, Imipramine] | 0.31 | – | 0.00 | 0.67 | 0.17 | 0.33 | 0.33 | 0.33 | 0.33
